Reference: US5684005A, “Pharmacologically active CNS compounds” (Glaxo Wellcome Inc., priority 1988, dated 1997)

Key:
[1] = Duration of action / clearance from central nervous system; settings: in words
[2] = tested on: release of aspartate; settings: in words, literature; cited from earlier work
[3] = tested on: release of glutamate; settings: in words, literature; cited from earlier work

Compound | duration of action [1] | inhibition of aspartate release [2] | inhibition of glutamate release [3]
Nc1nc(N)c(-c2cc(Cl)cc(Cl)c2Cl)c(C(F)(F)F)n1 [Example 4, 2,4-Diamino-5-(2,3,5-trichlorophenyl)-6-trifluoromethyl pyrimidine] | long acting | – | –
CN1CCN(c2ncc(-c3cc(Cl)cc(Cl)c3Cl)c(N)n2)CC1.CS(=O)(=O)O [Example 3, 4-Amino-2-(4-methylpiperazin-1-yl)-5-(2,3,5-trichlorophenyl) pyrimidine mesylate] | long acting | – | –
CN1CCN(c2nc(N)c(-c3cc(Cl)cc(Cl)c3Cl)c(C(F)(F)F)n2)CC1 [Example 1, 4-Amino-2-(4-methylpiperazin-1-yl)-5-(2,3,5-trichlorophenyl)-6-trifluoromethylpyrimidine] | long acting | – | –
Nc1nnc(-c2cccc(Cl)c2Cl)c(N)n1 [lamotrigine, 3,5-diamino-6-(2,3-dichlorophenyl)-1,2,4-triazine] | – | shown to inhibit the release | shown to inhibit the release
COCc1nc(N)nc(N)c1-c1cc(Cl)cc(Cl)c1Cl [Example 2, 2,4-Diamino-5-(2,3,5-trichlorophenyl)-6-methoxymethyl pyrimidine] | short acting | – | –
